These results are taken from patent US9062124B2, “GIP-based mixed agonists for treatment of metabolic disorders and obesity” (priority 2008, dated 2015).

By pEC50 is commonly meant −log10 of the EC50, conventionally taken in molar units.

Holding throughout (assay type): cell-based
In one test the target is T1, GLP-1 receptor (Homo sapiens, UniProt P43220).
T1 construct: expressed in transfected cells; host or cells: HEK293
As to the kind of experiment: cAMP synthesis functional assay (firefly luciferase reporter in HEK293 cells), GLP-1 receptor.

The next test concerns the target T2, GIP receptor (Homo sapiens, UniProt P48546).
T2 construct: expressed in transfected cells; host or cells: HEK293
T2 sequence (P48546 22-466): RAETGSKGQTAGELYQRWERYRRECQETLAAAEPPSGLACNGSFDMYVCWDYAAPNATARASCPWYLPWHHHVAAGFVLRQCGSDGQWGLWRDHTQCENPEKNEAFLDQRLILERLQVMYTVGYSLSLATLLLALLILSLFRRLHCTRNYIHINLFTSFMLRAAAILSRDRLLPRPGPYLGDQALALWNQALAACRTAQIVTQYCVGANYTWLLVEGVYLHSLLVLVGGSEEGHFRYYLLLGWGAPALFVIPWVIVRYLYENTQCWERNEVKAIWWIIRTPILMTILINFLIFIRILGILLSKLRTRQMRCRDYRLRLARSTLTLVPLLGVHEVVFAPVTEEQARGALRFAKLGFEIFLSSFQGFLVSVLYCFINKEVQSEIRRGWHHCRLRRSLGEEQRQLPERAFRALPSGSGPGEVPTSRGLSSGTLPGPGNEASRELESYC
As to the kind of experiment: cAMP synthesis functional assay (firefly luciferase reporter in HEK293 cells), GIP receptor. Background: A reporter such as luciferase makes a cellular process visible.

Another test has as its target T3, glucagon receptor (Homo sapiens, UniProt P47871).
T3 construct: expressed in transfected cells; host or cells: HEK293
In words: cAMP synthesis functional assay (firefly luciferase reporter in HEK293 cells), glucagon receptor.

Where [1] appears, read: Table 1, relative to the native hormone of the indicated receptor.
Setting [2] is: relative to the standard (Std.) EC50 of the same run.

pEC50: −log10 of the molar value. Like-named read-outs stand apart in the source and are kept apart here. Where a SMILES comes first, the peptide text is derived from it. Bridges are numbered along the chain shown (N, C = ends). Where no end group is shown, it is not given here. [ ]: non-standard residue; d: D form. The star is where a group is joined. PEG 40 kDa = PEG (40 kDa) covalently attached to Cys; Stearoyl = CCCCCCCCCCCCCCCCCC(=O)*; Aib = CC(C)(N)C(=O)O

T1 sequence (P43220 24-463, species assumed): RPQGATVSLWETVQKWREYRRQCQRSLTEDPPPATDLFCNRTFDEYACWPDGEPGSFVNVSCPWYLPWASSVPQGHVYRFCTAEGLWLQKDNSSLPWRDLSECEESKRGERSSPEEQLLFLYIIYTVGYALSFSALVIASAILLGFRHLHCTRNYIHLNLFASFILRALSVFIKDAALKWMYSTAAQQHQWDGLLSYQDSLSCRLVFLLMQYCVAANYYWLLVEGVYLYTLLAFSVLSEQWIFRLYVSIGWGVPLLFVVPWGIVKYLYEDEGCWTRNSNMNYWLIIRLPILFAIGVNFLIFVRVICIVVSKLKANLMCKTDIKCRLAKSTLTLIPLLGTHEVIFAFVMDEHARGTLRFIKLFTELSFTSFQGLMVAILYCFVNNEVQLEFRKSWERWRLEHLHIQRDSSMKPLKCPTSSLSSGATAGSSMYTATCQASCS
T3 sequence (P47871 26-477): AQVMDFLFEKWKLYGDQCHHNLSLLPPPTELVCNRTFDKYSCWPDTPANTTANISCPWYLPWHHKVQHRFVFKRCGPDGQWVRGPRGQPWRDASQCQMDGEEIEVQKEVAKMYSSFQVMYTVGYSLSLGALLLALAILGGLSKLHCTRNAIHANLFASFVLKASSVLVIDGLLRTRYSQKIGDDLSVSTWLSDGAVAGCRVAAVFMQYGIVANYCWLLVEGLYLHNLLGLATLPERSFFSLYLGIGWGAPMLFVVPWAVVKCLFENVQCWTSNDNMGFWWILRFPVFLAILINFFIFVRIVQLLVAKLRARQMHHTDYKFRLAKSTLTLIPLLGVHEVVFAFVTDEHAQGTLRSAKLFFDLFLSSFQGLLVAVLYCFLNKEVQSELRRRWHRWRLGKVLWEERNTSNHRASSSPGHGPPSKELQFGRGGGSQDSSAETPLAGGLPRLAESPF

Regarding `CC[C@H](C)[C@H](NC(=O)[C@H](CO)NC(=O)[C@H](Cc1ccc(O)cc1)NC(=O)[C@H](CC(=O)O)NC(=O)[C@H](CO)NC(=O)[C@@H](NC(=O)[C@H](Cc1ccccc1)NC(=O)[C@@H](NC(=O)CNC(=O)[C@H](CCC(N)=O)NC(=O)[C@H](CO)NC(=O)[C@@H](N)Cc1ccc(O)cc1)[C@@H](C)O)[C@@H](C)O)C(=O)N[C@@H](Cc1ccc(O)cc1)C(=O)N[C@@H](CCSC)C(=O)N[C@@H](CC(=O)O)C(=O)N[C@H]1CCC(=O)NCCCC[C@@H](C(=O)N[C@@H](CC(=O)O)C(=O)N[C@@H](Cc2ccccc2)C(=O)N[C@H](C(=O)N[C@@H](CC(N)=O)C(=O)N[C@@H](Cc2c[nH]c3ccccc23)C(=O)N[C@@H](CC(C)C)C(=O)N[C@@H](CC(C)C)C(=O)N[C@@H](C)C(=O)N[C@@H](CCC(N)=O)C(N)=O)C(C)C)NC(=O)[C@H](CCC(N)=O)NC(=O)[C@H](Cc2c[nH]cn2)NC(=O)[C@H]([C@@H](C)CC)NC1=O` [mt-125] (H-YSQGTFTSDYSIYMDEIHQKDFVNWLLAQ-NH2; lactam 16-20; N-terminus assumed), the “GLP-1 Receptor relative activity” value on GLP-1 receptor (setting [1]) was found to be 3.17%. For the same compound, the “GIP Receptor relative activity” value on GIP receptor (setting [1]) came to 19.64%. Further, the “Glucagon Receptor relative activity” value at glucagon receptor (setting [1]) was 9.06%.

Turning to `CCCCCCCCCCCCCCCCCC(=O)NCCCC[C@H](NC(=O)[C@H](CC(=O)O)NC(=O)[C@H](CO)NC(=O)[C@@H](NC(=O)[C@H](Cc1ccccc1)NC(=O)[C@@H](NC(=O)CNC(=O)[C@H](CCC(=O)O)NC(=O)C(C)(C)NC(=O)[C@@H](N)Cc1ccc(O)cc1)[C@@H](C)O)[C@@H](C)O)C(=O)N[C@@H](CO)C(=O)N[C@H](C(=O)N[C@@H](Cc1ccc(O)cc1)C(=O)N[C@@H](CC(C)C)C(=O)N[C@@H](CC(=O)O)C(=O)N[C@@H](CCCCN)C(=O)N[C@@H](CCC(N)=O)C(=O)N[C@@H](C)C(=O)N[C@@H](C)C(=O)NC(C)(C)C(=O)N[C@@H](CCC(=O)O)C(=O)N[C@@H](Cc1ccccc1)C(=O)N[C@H](C(=O)N[C@@H](CC(N)=O)C(=O)N[C@@H](Cc1c[nH]c2ccccc12)C(=O)N[C@@H](CC(C)C)C(=O)N[C@@H](CC(C)C)C(=O)N[C@@H](C)C(=O)NCC(N)=O)C(C)C)[C@@H](C)CC` [mt-284] (H-Y[Aib]EGTFTSDK(Stearoyl)SIYLDKQAA[Aib]EFVNWLLAG-NH2; N-terminus assumed), the pEC50 was 10.81 at GLP-1 receptor (GLP-1 Receptor EC50, cAMP luciferase reporter assay as in Example 16) and 8.38 at glucagon receptor (Glucagon Receptor EC50, cAMP luciferase reporter assay as in Example 16). In addition, the “GLP-1 Receptor relative activity” value at GLP-1 receptor (setting [2]) is recorded as 38.06%. Further, the “GIP Receptor relative activity” value at GIP receptor (setting [2]) stood at 54.84%. Also, on glucagon receptor (setting [2]), the “Glucagon Receptor relative activity” value is reported as 0.69%.

For the compound “mt-205: glucagon analog peptide, C-terminal amide (Y[Aib]EGTFTSDYSIYLDEQAAKEFVNWLLAGRPSSGAPPPSC(PEG 40 kDa)-NH2; lactam 16-20)”, the “GLP-1 Receptor relative activity” value with GLP-1 receptor (setting [1]) was found to be 14.22%. Further, the negative-log EC50 (pEC50) in the test with GLP-1 receptor (read-out: GLP-1 Receptor EC50, Table 1) is 9.69; with GIP receptor (read-out: GIP Receptor EC50, Table 1), 8.78; in the test with glucagon receptor (read-out: Glucagon Receptor EC50, Table 1), 6.17. In the test with GIP receptor (setting [1]), the “GIP Receptor relative activity” value is recorded as 1.74%. The “Glucagon Receptor relative activity” value with glucagon receptor (setting [1]) came to 0.01%.
